For series [1], the system named is rats intraplantarly injected with carrageenin. Kind of series: Paw pressure test (pain threshold of paw), analgesic effect after intramuscular injection. The series is classed as in vivo, Sprague-Dawley rats. The procedure:
Louis, Mo., USA) was injected subcutaneously into the plantar space of the right hind paw of all rats. Intraplantar injections were made with a Hamilton syringe and a 30-gauge hypodermic needle. The needle was inserted into the pad region of the glabrous skin and moved 6-8 mm proximal toward the tarsal region. • (5) Measurements of the pain threshold values of rat paw: Paw pressure test was conducted using the TSE Analgesia System (TSE Technical & Scientific Equipment GmbH; Bad Homburg, Germany). The TSE Analgesia System is designed to perform rapid and accurate screening of analgesic drug candidates on the normal and inflamed paw of small laboratory animals, according to the Randall-Selitto method. The data can be measured and recorded by a control unit and a computer system connected thereto. The animal's paw is placed on a plinth and is applied with an increasing pressure generated from the tip of a sensor. The applied pressure is measured. The sensor is made from smooth plastic to prevent the paw from being injured when the animal withdraws its paw suddenly. To start the test, a foot switch is pressed and the sensor is lowered rapidly until it contacts the rat's paw. Thereafter, the sensor is lowered in small steps until the pain threshold is reached, at which time the tested animal (rat) starts to move vigorously and tries to withdraw its paw. The foot switch is then released and the sensor is raised. The value of the applied pressure measured at the pain threshold is shown on the display and simultaneously delivered to the computer system, which is installed with a software system capable of transferring the measured data into Excel format, which can be used as a basis for further evaluation, e.g., statistics. The TSE Analgesia system is suitable for rats, mice and other small laboratory animals. […] To prevent tissue damage, a cutoff pressure of 350 gm was set. […] In order to keep a similar condition of carrageenin-induced paw edema and pain at each testing day, this 4-day study was accomplished by conducting four one-day studies consecutively (i.e. from day 1 to day 4). All rats received only one intramuscular injection of either ketorolac propyl ester ([…], […]) or the vehicle ([…]) at the start of study (day 1) and then (1 minute later) received intraplantar injection of carrageenin at either day 1, 2, 3, or day 4. Each rat received only one injection of carrageenin. […] A three-way analysis of variance with one-way repeated method was used to compare the differences between groups. The Bonferroni test was used as a post-hoc test to compare the differences between the medication groups and the vehicle group at each time point. […] (“*” means P<0.05 whereas “+” means P<0.01 when compared with the vehicle group). The three-way analysis of variance with one-way repeated method is a powerful statistical method which can be used to evaluate the differences among groups. […] A 4-day study was carried out. […] All rats received only one intramuscular injection of a tested analgesic drug (ketorolac or a ketorolac ester derivative, […]) or the vehicle ([…]) at the start of study (day 1) and then received intraplantar injection of carrageenin at either day 1, 2, 3, or day 4. Each rat received only one injection of carrageenin.

Series [2] shares this test system. Kind of series: Paw swelling (paw thickness), anti-inflammatory effect after intramuscular injection. The series is classed as in vivo, Sprague-Dawley rats. The protocol: Louis, Mo., USA) was injected subcutaneously into the plantar space of the right hind paw of all rats. Intraplantar injections were made with a Hamilton syringe and a 30-gauge hypodermic needle. The needle was inserted into the pad region of the glabrous skin and moved 6-8 mm proximal toward the tarsal region. • (5) Measurements of the pain threshold values of rat paw: Paw pressure test was conducted using the TSE Analgesia System (TSE Technical & Scientific Equipment GmbH; Bad Homburg, Germany). […] Paw thickness was measured immediately prior to and following carrageenin injection. […] A two-way analysis of variance with one-way repeated method was used to compare the differences between groups. The Bonferroni test was used as a post-hoc test to compare the differences between the medication groups and the vehicle group at each time point. […] (“*” means P<0.05 whereas “+” means P<0.01 when compared with the vehicle group). The two-way analysis of variance with one-way repeated method is a powerful statistical method which can be used to evaluate the differences among groups. […] In order to keep a similar condition of carrageenin-induced paw edema and pain at each testing day, this 4-day study was accomplished by conducting four one-day studies consecutively (i.e. from day 1 to day 4). All rats received only one intramuscular injection of either ketorolac propyl ester (80, 160, or 240 μmole/Kg, prepared in sesame oil) or the vehicle (sesame oil only) at the start of study (day 1) and then (1 minute later) received intraplantar injection of carrageenin at either day 1, 2, 3, or day 4. Each rat received only one injection of carrageenin. […] A three-way analysis of variance with one-way repeated method was used to compare the differences between groups. The Bonferroni test was used as a post-hoc test to compare the differences between the medication groups and the vehicle group at each time point. […] (“*” means P<0.05 whereas “+” means P<0.01 when compared with the vehicle group). The three-way analysis of variance with one-way repeated method is a powerful statistical method which can be used to evaluate the differences among groups. […] A 4-day study was carried out. […] All rats received only one intramuscular injection of a tested analgesic drug (ketorolac or a ketorolac ester derivative, prepared in sesame oil) or the vehicle (sesame oil only) at the start of study (day 1) and then received intraplantar injection of carrageenin at either day 1, 2, 3, or day 4. Each rat received only one injection of carrageenin. […] All rats received only one intramuscular injection of either a tested analgesic drug (ketorolac propyl ester prepared in four different oils) or the vehicle (4 different oils) at the start of study (day 1) and then received intraplantar injection of carrageenin at either day 1, 2, 3, or day 4. Each rat received only one injection of carrageenin.

The nature of series [3]: Solubility in sesame oil. The format is physicochemical.
For series [4] the following is noted: cited from earlier work.
The conditions of series [5]: cited from earlier work. The source holds these as a separate data set.
For series [6] the following is noted: parenteral, n>20,000; cited from earlier work.
The conditions of series [7]: compared with commercially available ketorolac (trometamole salt); cited from earlier work.
The conditions of series [8]: human cadaver skin, compared with KEE; cited from earlier work.
The conditions of series [9]: human serum, compared with KEE; cited from earlier work.
For series [10], the system named is rats intraplantarly injected with carrageenin. Kind of series: Paw swelling (paw thickness), anti-inflammatory effect after intramuscular injection. The series is classed as in vivo, Sprague-Dawley rats. As to conditions: for Anti-inflammatory duration (h): in water.
For series [11] the following is noted: 30 mg (=80 μmole) given to an adult, clinical practice; cited from earlier work.
For series [12] the following is noted: cited from earlier work. The source holds these as a separate data set.
Setting [13] is: 240 μmole/Kg intramuscular, oil suspension in sesame oil.
[14] abbreviates: 240 μmole/Kg intramuscular, in oil A (sesame oil).
Where [15] appears, read: intramuscular injection of 24-240 μmole, in 0.9% saline.
Setting [16] is: 80 μmole/Kg intramuscular, in oil A (sesame oil).
The mark [17] stands for this setting: 160 μmole/Kg intramuscular, in oil A (sesame oil).
[18] abbreviates: 240 μmole/Kg intramuscular, in oil B (soybean oil).
Where [19] appears, read: 240 μmole/Kg intramuscular, in oil C (peanut oil).
The mark [20] stands for this setting: 240 μmole/Kg intramuscular, in oil D (castor oil).
The mark [21] stands for this setting: 240 μmole/Kg intramuscular, in oil E (cotton seed oil).

Values after ≈ are worked out from the molar mass of the structure shown.

On to `O=C(c1ccccc1)c1ccc2n1CCC2C(=O)O` (racemic) [Ketorolac, (±)-5-benzoyl-2,3-dihydro-1H-pyrrolizine-1-carboxylic acid], for which, in series [1] (setting [13]), the analgesic effect entry was “failed to provide significant analgesic and antiinflamatory effects”. For the same compound, in [2] (setting [13]), the anti-inflammatory effect result is “failed to provide significant analgesic and antiinflamatory effects”. In addition, the solubility in sesame oil in [3] amounted to 10.6 mM (≈ 2710 µg/mL). In addition, the concentration in solution in series [3] (oil or lipid) (solubility) was 2700 µg/mL (≈ 10.6 mM). For the same compound, in series [4] (healthy volunteers), the “mean terminal elimination half-life (T1/2β)” value is “about 5 hours”. In addition, the “apparent volume of distribution (Vd)” value in series [4] (in vivo) is reported as < 0.3 L/kg. The “bound to plasma proteins” value in series [5] is > 99%. Also, in series [6], the “odds ratio (OR), risk of gastrointestinal bleeding compared to opioids” value is given as 1.30 and the “odds ratio (OR), risk of operative site bleeding compared to opioids” value is given as 1.02.
Turning to `CCCCCOC(=O)C1CCn2c(C(=O)c3ccccc3)ccc21` (centres unmarked) [Ketorolac pentyl ester], the “Analgesic duration” value in series [1] (setting [14]) turned out to be 56 h. Further, the “Anti-inflammatory duration” value in [2] (setting [14]) is on record as 56 h.
In the case of `O=C(O)C(=O)O.O=C(c1ccccc1)c1ccc2n1CCC2C(=O)OCCN1CCCC1` (centres unmarked) [oxalate salt of 2-(1-pyrrolidinyl)ethylester of ketorolac], in series [7], the “undesired side effects (gastrointestinal irritation and ulceration)” value is “less undesired side effects”.
Consider `CCCCCCCCCCOC(=O)C1CCn2c(C(=O)c3ccccc3)ccc21` (centres unmarked) [Ketorolac decyl ester], for which the “Analgesic duration” value in series [1] (setting [14]) stood at 76 h. For the same compound, in series [2] (setting [14]), the “Anti-inflammatory duration” value is given as 76 h.
For the compound `CN(C)C(=O)COC(=O)C1CCn2c(C(=O)c3ccccc3)ccc21` (centres unmarked) [KDAE, ketorolac [(N,N-dimethylamino)carbonyl]methyl ester], in [8], the skin flux entry is “relatively higher skin flux”. Besides, the “enzymatic hydrolysis to liberate the parent drug” value in series [9] is on record as “faster enzymatic hydrolysis”.
`NC(CO)(CO)CO.O=C(c1ccccc1)c1ccc2n1CCC2C(=O)O` (centres unmarked) [Ketorolac tromethamine, ketorolac tromethamine, reference compound]: the “Analgesic duration” value in series [1] (24 μmole/Kg intramuscular, in water) is listed as 6 h; in [1] (80 μmole/Kg intramuscular, in water) it was 6 h; in [1] (240 μmole/Kg intramuscular, in water) it was 8 h. The duration of action in series [1] (intramuscular injection 30 mg/kg in rats) and in series [11] was 6 to 8 h in each case. Moreover, in series [1] (setting [15]), the “duration of significant analgesic effects (pain threshold of paw)” value lay in the range of 6 to 8 h. The “Anti-inflammatory duration (h)” value in [10] (24 μmole/Kg intramuscular) is listed as 8, 8, 8 h; in series [10] (80 μmole/Kg intramuscular), 8, 8, 8 h; in series [10] (240 μmole/Kg intramuscular), 8, 8, 8 h. Moreover, the “duration of significant anti-inflammatory effects (paw swelling)” value in [10] (setting [15]) came to 8 h.
Consider `CC(C)(C)OC(=O)C1CCn2c(C(=O)c3ccccc3)ccc21` (centres unmarked) [Ketorolac tert-butyl ester], for which, in series [1] (setting [14]), the “Analgesic duration” value is 56 h. Besides, the “Anti-inflammatory duration” value in series [2] (setting [14]) amounted to 56 h.
In the case of `O=C(c1ccccc1)c1ccc2n1CCC2C(=O)OCc1ccccc1` (centres unmarked) [Ketorolac benzyl ester], the “Analgesic duration” value in [1] (setting [14]) worked out at 56 h. Besides, the “Anti-inflammatory duration” value in series [2] (setting [14]) was determined as 56 h.
With `CCCCCCCCCCCCCCCCOC(=O)C1CCn2c(C(=O)c3ccccc3)ccc21` (centres unmarked) [Ketorolac cetyl ester], the “Analgesic duration” value in series [1] (setting [14]) was 74 h. Further, the “Anti-inflammatory duration” value in series [2] (setting [14]) is given as 78 h.
For the compound `CCCCCCCOC(=O)C1CCn2c(C(=O)c3ccccc3)ccc21` (centres unmarked) [Ketorolac heptyl ester], the “Analgesic duration” value in series [1] (setting [14]) is given as 74 h. For the same compound, in series [2] (setting [14]), the “Anti-inflammatory duration” value amounted to 74 h.
Turning to `CCN(CC)CCOC(=O)C1CCn2c(C(=O)c3ccccc3)ccc21.O=C(O)/C=C\C(=O)O` (centres unmarked) [maleate salt of 2-(diethylamino)ethyl ester of ketorolac], the “undesired side effects (gastrointestinal irritation and ulceration)” value in series [7] was “less undesired side effects”.
For the compound `CCCOC(=O)C1CCn2c(C(=O)c3ccccc3)ccc21` (centres unmarked) [Ketorolac propyl ester], the “Analgesic duration” value is on record as 6 h in series [1] (setting [16]); 28 h in [1] (setting [17]); 54 h in series [1] (setting [14]); 56 h in series [1] (setting [20]); 78 h in [1] (setting [21]). Moreover, the “Analgesic duration (h)” value in series [1] (setting [18]) is on record as 56, 56 h; in series [1] (setting [19]), 56, 56 h. In addition, the “Anti-inflammatory duration” value in series [2] (setting [16]) was 6 h; in series [2] (setting [17]) it was 30 h; in series [2] (setting [14]), 54 h; in series [2] (setting [18]), 54 h; in series [2] (setting [19]) it was 56 h; in series [2] (setting [20]) it was 56 h. Further, the “Anti-inflammatory duration” value in series [2] (setting [21]) was determined as 78 h. Further, the “permeation rate of ketorolac in rat skin (maximum)” value in [12] was 46.61 nmole/cm^2/h.

The values above are taken from US20060183786A1, “Injectable long-acting analgesic composition comprising an ester derivative of ketorolac” (CHI MEI FOUNDATION HOSPITAL, priority 2005, published 2006).
